PubChem BioAssay AID1963448 (Molecular Pharmacology Branch, DTP, NCI, 2024)

System: 616215-338-R-J1-PDC complex spheroid growth, % test/control
Experiment: Anticancer human tumor 616215-338-R-J1-PDC patient-derived colon adenocarcinoma cell line growth inhibition [Asc]
Conditions: for IC50: curve of first compound; for viability, T/C: stronger effect = lower value
Method: Multicellular complex tumor spheroid response to apoptosis pathway targeting inhibitors Alrizomadlin, Pelcitoclax, and Dasminapant in combination with a variety of drugs and investigational agents in selected tumor cell lines
The MDM2 inhibitor alrizomadlin, the Bcl-2/Bcl-xL inhibitor pelcitoclax, and the IAPs inhibitor dasminapant were evaluated both individually and in combination with standard of care and investigational anticancer small molecules within a complex spheroid model of solid tumors. . Complex spheroids include a stromal component modeled by human endothelial cells (HUVEC) and fibroblasts modeled by human mesenchymal stem cells (MSCs). The concentration ranges selected for each drug and investigational agent were based upon clinically achievable concentrations if the clinical Cmax of the agent was known.
Compounds. The drugs and investigational agents: alrizomadlin (APG-115; NSC831270), pelcitoclax (APG-1252; NSC835773), dasminapant (APG-1387;NSC834197), TAK-243 (NSC785004), copanlisib (NSC809693), olaparib (NSC753686), talazoparib (NSC767125), cobimetinib (NSC 768068), eltanexor (KPT-8602, NSC 794443), abemaciclib (NSC 768073), sotorasib (NSC818433), adagrasib (NSC 831453), MRTX-1133 (NSC 836407), Iadademestat (ORY1001, NSC 806812), and RMC-4630 (NSC839698), were obtained from the NCI Developmental Therapeutics Program Chemical Repository. The FDA-approved anticancer drug set is available from the Developmental Therapeutics Program at https://dtp.cancer.gov/organization/dscb/obtaining/available plates.htm. […] The stock solutions were prepared in dimethyl sulfoxide (DMSO, Sigma-Aldrich, St. Louis, MO, cat. D2650) at 800-fold the tested concentration and stored at -70 degrees C prior to their use. All drugs and investigational agents were tested over a range starting from a high concentration at or near the clinical Cmax and decreasing in half-log increments. If the clinical Cmax for an agent had not been determined, the highest concentration tested was 10 microM.
The patient-derived cancer (PDC) cell lines include five colon adenocarcinomas: 186277-243-T-J2-PDC, 616215-338-R-J1-PDC, 439559-082-T-J2-PDC, 463943-066-T-J2-PDC, and 519858-162-T-J1-PDC; three pancreatic carcinomas: 323965-272-R-J2-PDC, 521955-158-R6-J3-PDC, and 521955-158-R2-J5-PDC; two uterine sarcomas: 327498-152-R-J2-PDC and 993429-296-R-J1-PDC; two rhabdomyosarcomas: 755483-174-R-J1-PDC and 772245-204-R-J1-PDC; two soft tissue sarcomas: 126254-015-R-J1-PDC and 494315-158-R-J1-PDC; two malignant fibrous histiocytomas: 317291-083-R-J1-PDC and 596521-263-R-J1-PDC; two breast carcinomas: 171881-019-R-J1-PDC and 885512-296-R-J2-PDC; and one ovarian carcinoma: 6556581-035-R-J-PDC were obtained from the NCI PDMR, (https://pdmr.cancer.gov). The established cell lines HSSY-2 synovial sarcoma (RRID:CVCL 8719), SYO-1 synovial sarcoma (RRID:CVCL_7146), MPNST malignant peripheral neural sheath tumor were obtained from the Sloan Kettering Institute. The following established cell lines were purchased from the American Type Culture Collection (ATCC, Manassas, VA), Sor the received from the NCI repository:, PANC-1 pancreatic carcinoma (CRL-1469, RRID:CVCL_0480), OVCAR-5 ovarian carcinoma (RRID:CVCL_1628), OVCAR-8 ovarian carcinoma (RRID:CVCL_1629), , MCF-7 breast carcinoma (CRL-12584, RRID:CVCL_0031), MDA-MB-231 breast carcinoma (CRL-12532, RRID:CVCL_0062), NCI-H1876 small cell lung carcinoma (CRL-5902, RRID:CVCL_1503), NCI-H510A small cell lung carcinoma (HTB-184, RRID:CVCL_1565), NCI-H1417 (CRL-5869, RRID:CVCL_1469), and NCI-H196 small cell lung carcinoma (CRL-5823, RRID:CVCL_1509). Dr. Peter Houghton (Greehey Children's Cancer Research Institute, University of Texas Health Science Center, San Antonio, TX) provided Rh-18 rhabdomyosarcoma (RRID:CVCL_1659). Pooled donor human umbilical vein endothelial cells (HUVEC, Lonza, cat. CC-2519) and human mesenchymal stem cells (hMSC, Lonza, cat. PT-2501) were purchased from Lonza (Walkersville, MD).
Cell Culture. […]
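Note: spheroids exposed to agents for seven days before readout.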
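Throughout, for viability, T/C: 100% = DMSO vehicle control viability.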

How did the IC50 (second compound 0.1 µM) turn out when `Cn1ncnc1[C@H]1c2n[nH]c(=O)c3cc(F)cc(c23)N[C@@H]1c1ccc(F)cc1` + Cc1c(S(C)(=O)=O)c(-c2cc(F)cc(N3CCN(c4ccc(NS(=O)(=O)c5ccc(NC(CCN6CCC(C(=O)OCCCP(=O)(O)O)CC6)CSc6ccccc6)c(S(=O)(=O)C(F)(F)F)c5)cc4)CC3)c2)c(-c2ccc(Cl)cc2)n1C(C)C was run?
The IC50 was over 0.1 µM.

And the IC50 (second compound 0.316 µM)?
The IC50 was over 0.1 µM.

And the IC50 (second compound 1 µM)?
The IC50 was 0.0154 µM.

What about the IC50 (second compound 3.16 µM) of the same compound?
The IC50 was under 0.000316 µM.

And the IC50 (second compound 10 µM)?
Its IC50 is under 0.000316 µM.

And the viability, T/C (second compound 0.1 µM, first compound 0.000316 µM)?
The viability, T/C was 88.5%.

And the viability, T/C (second compound 0.1 µM, first compound 0.001 µM)?
Its viability, T/C is 104%.

What about the viability, T/C (second compound 0.1 µM, first compound 0.00316 µM) of the same compound?
Its viability, T/C is 85.2%.

What about the viability, T/C (second compound 0.1 µM, first compound 0.01 µM) of the same compound?
Its viability, T/C is 90.1%.

What about the viability, T/C (second compound 0.1 µM, first compound 0.0316 µM) of the same compound?
The viability, T/C was 86.2%.

What about the viability, T/C (second compound 0.1 µM, first compound 0.1 µM) of the same compound?
The viability, T/C was 84.9%.

And the viability, T/C (second compound 0.316 µM, first compound 0.000316 µM)?
The viability, T/C was 86.4%.

What about the viability, T/C (second compound 0.316 µM, first compound 0.001 µM) of the same compound?
The viability, T/C was 87.6%.

What about the viability, T/C (second compound 0.316 µM, first compound 0.00316 µM) of the same compound?
The viability, T/C was 90.8%.

And the viability, T/C (second compound 0.316 µM, first compound 0.01 µM)?
Its viability, T/C is 85.8%.

What about the viability, T/C (second compound 0.316 µM, first compound 0.0316 µM) of the same compound?
The viability, T/C was 76.6%.

And the viability, T/C (second compound 0.316 µM, first compound 0.1 µM)?
Its viability, T/C is 69.3%.

And the viability, T/C (second compound 1 µM, first compound 0.000316 µM)?
The viability, T/C was 66.9%.

What about the viability, T/C (second compound 1 µM, first compound 0.001 µM) of the same compound?
Its viability, T/C is 67.8%.

What about the viability, T/C (second compound 1 µM, first compound 0.00316 µM) of the same compound?
The viability, T/C was 63.7%.

What about the viability, T/C (second compound 1 µM, first compound 0.01 µM) of the same compound?
Its viability, T/C is 54%.

What about the viability, T/C (second compound 1 µM, first compound 0.0316 µM) of the same compound?
Its viability, T/C is 42.7%.

What about the viability, T/C (second compound 1 µM, first compound 0.1 µM) of the same compound?
The viability, T/C was 32.9%.

What about the viability, T/C (second compound 3.16 µM, first compound 0.000316 µM) of the same compound?
The viability, T/C was 38.9%.

What about the viability, T/C (second compound 3.16 µM, first compound 0.001 µM) of the same compound?
Its viability, T/C is 39%.

What about the viability, T/C (second compound 3.16 µM, first compound 0.00316 µM) of the same compound?
The viability, T/C was 27.3%.

What about the viability, T/C (second compound 3.16 µM, first compound 0.01 µM) of the same compound?
The viability, T/C was 15.8%.

What about the viability, T/C (second compound 3.16 µM, first compound 0.0316 µM) of the same compound?
Its viability, T/C is 9.58%.

What about the viability, T/C (second compound 3.16 µM, first compound 0.1 µM) of the same compound?
Its viability, T/C is 4.09%.

And the viability, T/C (second compound 10 µM, first compound 0.000316 µM)?
Its viability, T/C is 25.9%.

And the viability, T/C (second compound 10 µM, first compound 0.001 µM)?
Its viability, T/C is 20%.

What about the viability, T/C (second compound 10 µM, first compound 0.00316 µM) of the same compound?
Its viability, T/C is 10.4%.

What about the viability, T/C (second compound 10 µM, first compound 0.01 µM) of the same compound?
The viability, T/C was 4.53%.

What about the viability, T/C (second compound 10 µM, first compound 0.0316 µM) of the same compound?
Its viability, T/C is 2.52%.

And the viability, T/C (second compound 10 µM, first compound 0.1 µM)?
The viability, T/C was 1.65%.
